Activity calls are given as the source filed them. No cut-off for these calls is given here.
Legend:
[1] = target: Replicase polyprotein 1ab (Severe acute respiratory syndrome coronavirus 2, UniProt P0DTD1); assay: Inhibition of recombinant SARS-CoV-2 PLpro using TLKGGI-AMC as substrate assessed as assessed as inhibition constant ny measuring fluorescence signal measured after 15 mins
[2] = target: Replicase polyprotein 1ab (Severe acute respiratory syndrome coronavirus 2) (UniProt P0DTD1); assay: Inhibition of recombinant SARS-CoV-2 PLpro using TLKGGI-AMC as substrate assessed as assessed as inhibition constant ny measuring fluorescence signal at 10 uM measured after 15 mins relative to control
SARS-CoV-2 [3] = assay: Anti-viral activity against SARS-CoV-2 BavPat1 infected in Vero E6 cells assessed as inhibition of viral RNA replication; assay type: functional, organism-based; conditions: Severe acute respiratory syndrome coronavirus 2, BavPat1, Vero C1008
[4] = target: Replicase polyprotein 1ab (Severe acute respiratory syndrome coronavirus 2) (UniProt P0DTD1); assay: Non-covalent inhibition of SARS-CoV-2 PLpro by Lineweaver-Burk Plot analysis
[5] = test system: Severe acute respiratory syndrome coronavirus 2; assay: Binding affinity to SARS-CoV-2 MPro assessed as thermal stability by measuring melting temperature of half of the proteins unfolded by differential scanning fluorimetry (DSF) (reference value: 52.46 degC)
[6] = target: Replicase polyprotein 1ab (Severe acute respiratory syndrome coronavirus 2) (UniProt P0DTD1); assay: Binding affinity to SARS-CoV-2 PLpro assessed as thermal stability by measuring melting temperature of half of the proteins unfolded by differential scanning fluorimetry (DSF) (reference value: 45.79 degC)
[7] = target: Chymotrypsin (Homo sapiens) (UniProt Q99895+P17538+P40313+Q6GPI1); assay: Inhibition of Chymotrypsin (unknown origin) assessed as BSA digestion; assay type: protein assay
[8] = Cytotoxicity against human HEK293 cells assessed as cell viability measured after 48 hrs by MTT assay; assay type: toxicity, cell-based
[9] = Cytotoxicity against African green monkey Vero E6 cells assessed as cell viability at 100 uM measured after 48 hrs by MTT assay relative to control; assay type: toxicity, cell-based, Vero C1008; conditions: chlorocebus sabaeus, read-out: Activity
SARS-CoV-2 [10] = assay: Antiviral activity against SARS-CoV-2 infected in African green monkey Vero E6 cells assessed as viral reduction by measuring viral RNA measured up to 72 hrs by RT-PCR analysis; assay type: functional, organism-based; conditions: Severe acute respiratory syndrome coronavirus 2, SARS-CoV-2, Vero C1008, 72 h
SARS-CoV-2 [11] = assay: Antiviral activity against SARS-CoV-2 infected in African green monkey Vero E6 cells assessed as viral load reduction at 4 uM by measuring viral RNA measured up to 72 hrs by RT-PCR analysis relative to control; assay type: functional, Severe acute respiratory syndrome coronavirus 2, Vero C1008; parameters: scale not given: the % may be the effect or the level left
SARS-CoV-2 [12] = assay: Antiviral activity against SARS-CoV-2 infected in African green monkey Vero E6 cells assessed as viral load reduction at 0.125 uM by measuring viral RNA measured up to 72 hrs by RT-PCR analysis relative to control; assay type: functional, Severe acute respiratory syndrome coronavirus 2, Vero C1008; parameters: scale not given: the % may be the effect or the level left
[13] = test system: Severe acute respiratory syndrome coronavirus 2; assay: Non-covalent inhibition of SARS-CoV-2 MPro by Lineweaver-Burk Plot analysis

CCOC(=O)c1sc(NNC(=O)c2cccc(Br)c2)nc1C
Ki [1]: Not_active | inhibition [2]: < 50%

COC(=O)c1sc(NNC(=O)c2ccc([N+](=O)[O-])cc2)nc1C
Ki [1]: Not_active | inhibition [2]: < 50%

O=C(O)c1ccccc1/C=N/Nc1ncc(-c2ccccc2Cl)s1
EC50 (SARS-CoV-2 [3]): 1590 nM

CC(=O)Oc1ccccc1C(=O)Nc1ncc([N+](=O)[O-])s1 [NITAZOXANIDE]
EC50 (SARS-CoV-2 [3]): 7480 nM

Oc1ccc(/C=N/Nc2nc(-c3ccc(Cl)cc3)cs2)cc1
Ki ([1]; read-out: Ki): 290 nM | Activity [4]: Active | Tm [5]: 51.4 °C | Tm [6]: 44.3 °C | inhibition [7]: inactive | IC50 at 48 h [8]: 194000 nM | viability at 48 h, 100 µM [9]: 91%

Cc1ccc(-c2csc(NNC(=O)c3ccc(F)cc3)n2)cc1
EC50 (SARS-CoV-2 [10]): 38 nM | Ki ([1]; read-out: Ki): 340 nM | Tm [6]: 47.1 °C | inhibition [7]: inactive | IC50 at 48 h [8]: 25300 nM | viability at 48 h, 100 µM [9]: 92.1% | Activity (SARS-CoV-2 [11]): >70% | Activity (SARS-CoV-2 [12]): >70%

CCOC(=O)c1sc(NNC(=O)c2ccccc2OC)nc1C
Ki [1]: Not_active

O=C(NNc1nc(-c2ccc(Cl)cc2)cs1)c1ccc(Cl)cc1
EC50 (SARS-CoV-2 [10]): 64 nM | Ki ([1]; read-out: Ki): 500 nM | Tm [6]: 47.5 °C | IC50 at 48 h [8]: 14000 nM | viability at 48 h, 100 µM [9]: 87% | Activity (SARS-CoV-2 [11]): >80%

Cc1ccc(-c2csc(NNC(=O)c3ccc([N+](=O)[O-])cc3)n2)cc1
EC50 (SARS-CoV-2 [10]): 126 nM | Ki ([1]; read-out: Ki): 1250 nM | Tm [5]: 52.6 °C | Tm [6]: 41.4 °C | inhibition [7]: inactive | IC50 at 48 h [8]: 6690 nM | viability at 48 h, 100 µM [9]: 82.3% | Activity (SARS-CoV-2 [11]): >80%

CCOC(=O)c1sc(NNC(=O)c2ccc(Cl)cc2)nc1C
EC50 (SARS-CoV-2 [10]): 72 nM | Ki [1]: Not_active | Activity [4]: Active | Tm [5]: 52.1 °C | Tm [6]: 44.7 °C | inhibition [7]: inactive | IC50 at 48 h [8]: 45500 nM | viability at 48 h, 100 µM [9]: 92.5% | Activity (SARS-CoV-2 [11]): >80% | Activity (SARS-CoV-2 [12]): >70%

Cc1ccc(-c2csc(NNC(=O)c3ccc(Cl)cc3)n2)cc1
Ki [1]: Not_active | inhibition [2]: < 50%

O=C(NNc1nc(-c2ccc(Br)cc2)cs1)c1ccc(Cl)cc1
Ki ([1]; read-out: Ki): 1720 nM | inhibition [7]: inactive | viability at 48 h, 100 µM [9]: 86.7%

O=C(NNc1nc(-c2ccc(Cl)cc2)cs1)c1ccc(F)cc1
EC50 (SARS-CoV-2 [10]): 41 nM | Ki ([1]; read-out: Ki): 180 nM | Tm [6]: 47.1 °C | IC50 at 48 h [8]: 41200 nM | viability at 48 h, 100 µM [9]: 86.5% | Activity (SARS-CoV-2 [11]): >80%

O=C(NNc1nc(-c2ccc(Br)cc2)cs1)c1ccc([N+](=O)[O-])cc1
Ki ([1]; read-out: Ki): 4220 nM | inhibition [7]: inactive | viability at 48 h, 100 µM [9]: 99.5%

O=C(NNc1nc(-c2ccc(Br)cc2)cs1)c1ccc(F)cc1
Ki ([1]; read-out: Ki): 150 nM | Activity [13]: Active | Activity [4]: Active | Tm [5]: 51.1 °C | Tm [6]: 45.9 °C | inhibition [7]: inactive | IC50 at 48 h [8]: 10500 nM | viability at 48 h, 100 µM [9]: 91.8%

CCOC(=O)c1sc(NNC(=O)c2ccccc2)nc1C
Ki [1]: Not_active | inhibition [2]: < 50%

CCOC(=O)c1sc(N/N=C/c2cc3ccccc3nc2Cl)nc1C
Ki [1]: Not_active

CCOC(=O)c1sc(NNC(=O)c2cccc(Cl)c2)nc1C
Ki [1]: Not_active | inhibition [2]: < 50%

Cc1ccc(-c2csc(NNC(=O)c3ccc(Br)cc3)n2)cc1
Ki [1]: Not_active | inhibition [2]: < 50%

O=C(NNc1nc(-c2ccc(Br)cc2)cs1)c1ccc(Br)cc1
Ki [1]: Not_active | inhibition [2]: < 50%

CCOC(=O)c1sc(NNC(=O)c2ccc(Br)cc2)nc1C
EC50 (SARS-CoV-2 [10]): 116 nM | Ki ([1]; read-out: Ki): 500 nM | Activity [13]: Active | Activity [4]: Active | Tm [5]: 49.7 °C | Tm [6]: 41.5 °C | inhibition [7]: inactive | IC50 at 48 h [8]: 219000 nM | viability at 48 h, 100 µM [9]: 86.9% | Activity (SARS-CoV-2 [11]): >80%

O=C(NNc1ncc(-c2ccc(Cl)cc2)s1)c1cccc(Cl)c1
Ki ([1]; read-out: Ki): 4230 nM

CCOC(=O)c1sc(NNC(=O)c2ccccc2C)nc1C
Ki [1]: Not_active | inhibition [2]: < 50%

CCOC(=O)c1sc(NNC(=O)c2cccs2)nc1C
EC50 (SARS-CoV-2 [10]): 118 nM | Ki ([1]; read-out: Ki): 230 nM | Activity [13]: Active | Activity [4]: Active | Tm [5]: 49.8 °C | Tm [6]: 41.1 °C | inhibition [7]: inactive | IC50 at 48 h [8]: 45800 nM | viability at 48 h, 100 µM [9]: 87.9% | Activity (SARS-CoV-2 [11]): >70%

O=C(NNc1nc(-c2ccc(Br)cc2)cs1)c1ccccc1
Ki [1]: Not_active | inhibition [2]: < 50%

Clc1nc2ccccc2cc1/C=N/Nc1nc(-c2ccccc2)cs1
Ki [1]: Not_active | inhibition [2]: < 50%

CCOC(=O)c1sc(NNC(=O)c2ccc(F)cc2)nc1C
Ki [1]: Not_active | inhibition [2]: < 50%

Cc1ccc(C(=O)NNc2nc(-c3ccc(Cl)cc3)cs2)cc1
EC50 (SARS-CoV-2 [10]): 68 nM | Ki ([1]; read-out: Ki): 240 nM | Activity [4]: Active | Tm [5]: 51.8 °C | Tm [6]: 45.8 °C | inhibition [7]: inactive | IC50 at 48 h [8]: 41100 nM | viability at 48 h, 100 µM [9]: 91.5% | Activity (SARS-CoV-2 [11]): >70%

CCOC(=O)c1sc(NNC(=O)c2ccc3ccccc3c2)nc1C
Ki ([1]; read-out: Ki): 660 nM

CCOC(=O)c1sc(NNC(=O)c2ccco2)nc1C
Ki [1]: Not_active | inhibition [2]: < 50%

Cc1ccc(C(=O)NNc2nc(-c3ccc(Br)cc3)cs2)cc1
Ki [1]: Not_active | inhibition [2]: < 50%

Cc1ccc(C(=O)NNc2nc(-c3ccc(C)cc3)cs2)cc1
Ki [1]: Not_active | inhibition [2]: < 50%

O=C(NNc1ncc(-c2ccc(Cl)cc2)s1)c1ccc2ccccc2c1
Ki ([1]; read-out: Ki): 2130 nM

CCOC(=O)c1sc(NNC(=O)c2ccc(C)cc2)nc1C
Ki ([1]; read-out: Ki): 230 nM | inhibition [2]: < 50%

O=C(NNc1nc(-c2ccc(Cl)cc2)cs1)c1ccc(Br)cc1
Ki [1]: Not_active | inhibition [2]: < 50%
